Experimental data: the supplement of paper PMC10307832

Tests used:
Experiment in all cases: relative viability (nuclei count vs DMSO), 5 days (fraction); higher = more cells survive
[1] = compound: COc1cc2c(Oc3ccc4[nH]c(C)cc4c3F)ncnc2cc1OCCCN1CCCC1 [Cediranib] + Cc1nc(NC(=O)N2CCC[C@H]2C(N)=O)sc1-c1ccnc(C(C)(C)C(F)(F)F)c1 [Alpelisib] (partner 2 µM)
Outline: (§1)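 Cells from lung cancer lines were seeded into 1536-well plates and, one day later, dosed by pin tool. Treatments were either a single drug or a fixed dose of an anchor drug with five library-drug doses (not always all listed) in √10 steps. After 5 days, nuclei were stained in a one-step fixation (final 0.05% Triton X-100, 1% formaldehyde, 1 ug/ml Hoechst) and counted on 4× images, and relative viability is the treated-to-vehicle nuclei ratio, as the median of duplicate plates.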

[2] = compound: Nc1ncn([C@H]2C[C@H](O)[C@@H](CO)O2)c(=O)n1 [Decitabine] + CS(=O)(=O)CCNCc1ccc(-c2ccc3ncnc(Nc4ccc(OCc5cccc(F)c5)c(Cl)c4)c3c2)o1 [Lapatinib] (partner 2 µM)
Outline: as §1

[3] = compound: Nc1ncn([C@H]2C[C@H](O)[C@@H](CO)O2)c(=O)n1 [Decitabine] + Nc1nc2[nH]cc(CCc3ccc(C(=O)N[C@@H](CCC(=O)O)C(=O)O)cc3)c2c(=O)[nH]1 [Pemetrexed] (partner 0.2 µM)
Outline: as §1

[4] = compound: O=C(C[C@H]1NCCC[C@@H]1O)Cn1cnc2cc(Br)c(Cl)cc2c1=O (racemic) [Halofuginone] + O=C(c1cc(Cc2n[nH]c(=O)c3ccccc23)ccc1F)N1CCN(C(=O)C2CC2)CC1 [Olaparib] (partner 8 µM)
Outline: as §1

Cell Line	relative viability ([1]; first compound 0.04 µM)	relative viability ([1]; first compound 0.1265 µM)	relative viability ([1]; first compound 0.4 µM)	relative viability ([1]; first compound 1.265 µM)	relative viability ([1]; first compound 4 µM)	relative viability ([2]; first compound 0.04 µM)	relative viability ([2]; first compound 0.1265 µM)	relative viability ([2]; first compound 0.4 µM)	relative viability ([2]; first compound 1.265 µM)	relative viability ([2]; first compound 4 µM)	relative viability ([3]; first compound 0.04 µM)	relative viability ([3]; first compound 0.1265 µM)	relative viability ([3]; first compound 0.4 µM)	relative viability ([3]; first compound 4 µM)	relative viability ([4]; first compound 0.001 µM)	relative viability ([4]; first compound 0.003162 µM)	relative viability ([4]; first compound 0.01 µM)	relative viability ([4]; first compound 0.03162 µM)	relative viability ([4]; first compound 0.1 µM)	relative viability ([3]; first compound 1.265 µM)
201T	1.03	1.24	1.04	0.992	1.03	1.04	1.04	1.13	0.627	0.993	0.297	0.286	0.227	0.254	0.851	0.906	0.853	0.827	0.83	–
A549	0.698	0.947	0.654	0.701	0.869	0.898	0.843	0.49	0.305	0.19	–	–	–	–	0.48	0.413	0.378	0.288	0.262	–
A-427	1.04	–	1.08	1.01	1.08	0.806	0.745	0.318	0.333	0.229	0.847	0.779	0.466	0.474	0.826	0.695	0.77	0.704	0.597	0.474
ABC-1	1.06	1.01	1.04	–	1.07	1.27	1.26	1.16	0.861	0.981	–	–	–	–	1.06	0.793	0.617	0.847	1.09	–
BEN	1.17	0.814	0.906	1.04	0.953	0.775	0.678	0.358	0.45	0.348	0.775	0.757	0.632	0.553	1.06	1	1.12	1.02	0.626	0.663
CAL-12T	1.38	1.13	1.05	1.26	1.13	0.607	0.698	0.264	0.504	0.375	1.07	1.04	0.599	0.36	0.785	0.717	0.709	0.754	0.548	0.609
COR-L23	0.916	0.788	0.816	0.829	0.815	0.698	0.51	0.459	0.28	0.23	0.198	0.207	0.18	0.196	0.349	0.348	0.346	0.292	0.171	0.178
COR-L 105	–	1.14	0.862	1.14	1.1	0.345	0.317	0.328	0.326	0.28	1.01	1.08	0.882	0.668	0.695	0.607	0.698	0.664	0.625	0.698
Calu-6	1.06	1.01	0.991	0.935	1.04	0.87	0.689	0.316	0.308	0.264	–	–	–	–	0.611	–	0.584	0.327	0.135	–
ChaGo-K-1	–	–	–	–	–	–	–	–	–	–	0.27	0.261	0.253	0.269	0.397	0.452	0.407	0.398	0.442	0.251
EBC-1	0.857	1.01	0.762	0.719	1.02	0.2	0.163	0.162	0.195	0.152	–	–	–	–	0.752	0.706	0.532	0.303	0.169	–
EKVX	0.961	1.2	0.849	0.879	0.836	0.211	0.2	0.213	0.184	0.163	0.281	0.369	0.255	0.194	0.861	0.849	0.789	0.843	0.645	0.205
EMC-BAC-2	0.788	0.796	0.707	0.728	0.801	0.926	0.989	0.556	0.67	0.586	–	0.407	0.412	0.354	0.538	0.486	0.471	0.476	0.299	0.36
EPLC-272H	1.06	–	0.962	0.97	1	0.749	0.777	–	0.543	0.518	0.346	0.256	–	0.27	1.09	0.775	0.583	0.764	0.445	0.339
H3255	0.785	0.754	0.691	0.622	0.61	0.226	0.193	0.201	0.164	0.205	0.453	0.547	0.446	0.453	0.622	0.563	0.522	0.514	0.544	0.486
HARA	0.844	1.14	0.837	0.857	1.01	0.737	0.935	0.443	0.432	0.296	0.2	0.247	0.209	0.211	1.16	0.885	0.572	0.664	0.345	0.202
HCC-15	0.961	–	0.827	0.933	0.961	0.634	0.778	0.223	0.345	0.366	0.2	0.207	0.179	0.191	0.765	0.82	0.727	0.678	0.665	0.19
HCC-44	0.754	–	0.731	0.784	0.898	0.84	1	0.298	0.661	0.51	0.638	0.632	0.547	0.548	0.97	1.03	0.987	0.962	0.942	0.595
HCC-78	0.361	0.379	0.323	0.386	0.287	0.819	0.862	0.46	0.411	0.388	0.902	1.18	0.874	0.864	1.01	0.74	0.849	0.858	0.532	0.825

Cell Line	relative viability ([1]; first compound 0.04 µM)	relative viability ([1]; first compound 0.1265 µM)	relative viability ([1]; first compound 0.4 µM)	relative viability ([1]; first compound 1.265 µM)	relative viability ([1]; first compound 4 µM)	relative viability ([2]; first compound 0.04 µM)	relative viability ([2]; first compound 0.1265 µM)	relative viability ([2]; first compound 0.4 µM)	relative viability ([2]; first compound 1.265 µM)	relative viability ([2]; first compound 4 µM)	relative viability ([3]; first compound 0.04 µM)	relative viability ([3]; first compound 0.1265 µM)	relative viability ([3]; first compound 0.4 µM)	relative viability ([3]; first compound 4 µM)	relative viability ([4]; first compound 0.001 µM)	relative viability ([4]; first compound 0.003162 µM)	relative viability ([4]; first compound 0.01 µM)	relative viability ([4]; first compound 0.03162 µM)	relative viability ([4]; first compound 0.1 µM)	relative viability ([3]; first compound 1.265 µM)
HCC-366	0.402	0.316	0.363	0.401	0.388	0.938	1.07	0.214	0.164	0.113	0.16	0.115	0.0833	0.0583	0.337	0.319	0.351	0.328	0.0775	0.0595
HCC-827	1.06	–	0.957	0.985	0.926	–	0.168	0.187	0.187	0.2	0.161	0.585	0.198	0.219	0.673	0.588	0.667	0.631	0.599	0.202
HOP-62	1.16	–	0.74	0.96	1.18	0.962	0.604	0.348	0.1	0.14	0.283	0.31	0.205	0.183	0.493	0.473	0.415	0.296	0.129	0.186
IA-LM	0.845	0.959	0.928	0.592	0.655	0.503	0.306	0.212	0.169	0.178	–	–	–	–	0.848	0.913	0.768	0.656	0.305	–
LC-2-ad	0.994	0.97	0.809	0.86	0.635	0.676	0.775	0.317	0.245	0.37	0.288	0.255	0.27	0.266	0.675	0.697	0.692	0.678	0.669	0.239
LCLC-97TM1	0.235	–	0.25	0.237	0.199	0.576	0.335	0.173	0.169	0.126	0.173	0.134	0.0965	0.13	0.445	0.314	0.392	0.387	0.233	0.125
LCLC-103H	1.03	1.08	0.98	0.932	0.917	–	–	–	–	–	0.426	0.362	0.284	0.333	0.794	0.779	0.778	0.747	0.737	0.379
LK-2	1.36	1.01	1.13	1.11	0.475	0.784	0.991	0.75	0.521	0.402	0.194	0.256	0.223	0.211	0.806	0.623	0.673	0.833	0.607	0.245
LOU-NH91	0.702	0.952	0.695	0.672	0.615	0.764	0.712	0.649	0.689	0.661	0.378	0.358	0.422	0.397	0.958	0.93	0.853	0.925	0.81	0.336
NCI-H441	0.629	0.69	–	0.638	0.781	–	–	–	–	–	0.214	0.203	0.184	0.235	0.591	0.537	0.56	0.455	0.238	0.197
NCI-H522	–	–	–	–	–	–	–	–	–	–	0.979	0.839	0.677	0.505	0.621	0.665	0.631	0.672	0.628	0.705
NCI-H727	0.452	0.59	0.55	0.624	0.551	0.709	0.659	0.483	0.447	0.433	–	–	–	–	0.79	0.683	0.787	0.727	0.518	–
NCI-H1299	1.09	1.03	1.01	1.04	1.14	0.972	0.989	0.953	0.918	0.855	–	–	–	–	1	1.05	0.929	0.851	0.418	–
NCI-H1563	0.988	0.898	0.967	0.949	0.761	0.922	1.02	0.87	1.07	0.8	0.791	0.899	1.43	0.858	–	–	–	–	–	0.751
NCI-H1648	–	–	–	–	–	–	–	–	–	–	0.637	0.582	0.506	0.435	1.25	1.15	1.21	0.979	0.936	0.483
NCI-H1650	–	–	–	–	–	0.595	0.649	0.217	0.494	0.372	0.325	0.311	0.27	0.25	0.95	0.806	0.836	0.677	0.538	0.25
NCI-H1703	0.264	0.337	0.218	0.205	0.169	0.698	0.652	0.484	0.36	0.274	–	–	–	–	0.495	0.483	0.482	0.289	0.2	–
NCI-H2342	–	–	–	–	–	–	–	–	–	–	0.734	0.733	0.731	0.663	0.644	0.431	0.413	0.431	0.427	0.642
SW 900	–	–	–	–	–	–	–	–	–	–	0.415	0.411	0.345	0.303	0.805	0.851	–	0.733	0.197	0.277
